Patent publication US20040242550A1, “Means and method for hormonal contraception” (priority 2001, published 2004)

Assay: conversion factors for progestogens: amount equivalent to a given amount of levonorgestrel
Settings: for equivalent to 30 μg levonorgestrel / equivalent to 750 μg levonorgestrel: estimated amount of progestogen; for Conversion factor: relative to levonorgestrel, for guidance, estimate
Source text: In order to determine for a specific biogenic estrogen or synthetic estrogen the amounts that are equivalent to a cited amount of ethinyl estradiol or 17beta-estradiol, the method described by Allen and Doisy may suitably be used (Allen A., Doisy E. A., “An ovarian hormone. Preliminary report on its localization, extraction and partial purification, and action in test animals. JAMA (1923), 81, 819-821). Similarly, in order to determine for a given progestogen the amount equivalent to cited amount of levonorgestrel the method originally described by McPhail can be used (Mc Phail M. K. “The assay of progestin” J Physiol (1934), 83, 145-156). A more recent description of this method can be found in an article written by Overbeek G. A., de Visser J. “A new substance with progestational activity”, Acta Endocrinol (1956), 22, 318-329. It is noted that the aforementioned methods will provide useful indications about the anticipated estrogen potency or progestogen potency of a particular hormone. However, to accurately determine the equivalent amounts that are referred to above, it is advisable to additionally conduct in vivo studies in human females.
For guidance the table below provides the conversion factors for a number of progestogens that may suitably be used in the method of the invention. These conversion factors may be used to calculate, for each progestogen mentioned in the table, an estimate of the amount of said progestogen which is equivalent to a given amount of levonorgestrel.

| SMILES | equivalent to 30 μg levonorgestrel [µg] | equivalent to 750 μg levonorgestrel [mg] | Conversion factor |
| --- | --- | --- | --- |
| C#C[C@]1(OC(C)=O)CC[C@H]2[C@@H]3CCC4=CC(=NO)CC[C@@H]4[C@H]3CC[C@@]21CC (mixture of isomers) [norgestimate] | 51 | 1.275 | 1.7 |
| C[C@]12CCC(=O)C=C1[C@@H]1C[C@@H]1[C@H]1[C@@H]3[C@@H]4C[C@@H]4[C@@]4(CCC(=O)O4)[C@@]3(C)CC[C@@H]12 [drospirenone] | 600 | 15 | 20 |
| CC(=O)[C@H]1CC[C@H]2[C@@H]3C=CC4=CC(=O)CC[C@@]4(C)[C@@H]3CC[C@]12C [dydrogesterone] | 4000 | 100 | 133 |
| C#C[C@]1(O)CC[C@H]2[C@@H]3CCC4=CC(=O)CC[C@@H]4[C@H]3CC[C@@]21C [norethisterone] | 210 | 5.25 | 7 |
